From article PMC12019475 (ACS Omega, 2025)

System: CcrM from Moraxella lincolnii
Test: radiochemical DNA methylation assay
Assay type: biochemical, Lwoffella lincolnii
Details: read-out: M. lincolnii IC50; DNA and AdoMet as substrates

NSC317003 [NSC 2]
IC50: 45.8 ± 3.2 µM
